Tests used:
N2a cells = test: Lysosomal markers LAMP1 and CTSD by western blot in N2a cells; assay type: cell-based, mouse; conditions: 12 hours
Description: N2a cells are treated with different concentrations (0-1 μM) of E4 for 12 hours. Torin 1 (1 μM) is used as a positive control. The expression of LAMP1, pro-CTSD and mature CTSD (M-CTSD) are determined by western blotting (FIG. 25A) and quantified (FIG. 25B). Quantification data are presented as the mean±SD from three independent experiments. *p<0.05, **p<0.01 vs. the control (0.1% DMSO).
After transiently knockdown the expression of TFEB, N2a cells are treated with E4 (1 μM) for 12 hours, the expression of LAMP1, Pro-CTSD and mature CTSD (M-CTSD) are detected by Western blotting (FIG. 29A). Quantification data are presented as the mean±SD from three independent experiments FIG. 29B. **p<0.01 vs. the control (0.1% DMSO).
N2a and HeLa cells are cultured in DMEM supplemented with 10% FBS. HeLa cells stably expressing 3×-Flag-TFEB are maintained in DMEM supplemented with 10% FBS and 500 μg/mL G418. For drug treatment, the full medium is replaced by fresh Opti-MEM I containing the compounds (in 0.1% DMSO) and incubated for the indicated time periods.
N2a cells are transfected with mouse Tfeb siRNA and the non-target siRNA using Lipofectamine RNAiMAX (13778030, Invitrogen) and incubated at 37° C. for 72 hours.
Cells are lysed on ice in 1× Lysis Buffer (9803, Life Technologies) with complete protease inhibitor mixture (04693124001, Roche Applied Science) and phosphatase inhibitor (B15001, Biotool). Cytosolic and nuclear fractions are isolated using protocols similar to those described previously. Proteins are separated by 10-15% SDS-PAGE, transferred, and blotted with the antibodies described. The blots are then incubated with primary and secondary antibodies. The protein signals are detected by the ECL kit (32106, Pierce) and quantified using ImageJ software.

[1] = target: T1, MTOR-TFEB-YWHA interaction (Homo sapiens, UniProt P19484); test: Co-immunoprecipitation of MTOR and YWHA with Flag-TFEB in Hela cells; assay type: cell-based; conditions: Hela 3×Flag-TFEB cells, 1 μM, 12 h
T1 construct: expressed in transfected cells; host or cells: HeLa cells stably expressing 3×Flag-TFEB; MTOR and YWHA are endogenous
T1 sequence (P19484 1-476): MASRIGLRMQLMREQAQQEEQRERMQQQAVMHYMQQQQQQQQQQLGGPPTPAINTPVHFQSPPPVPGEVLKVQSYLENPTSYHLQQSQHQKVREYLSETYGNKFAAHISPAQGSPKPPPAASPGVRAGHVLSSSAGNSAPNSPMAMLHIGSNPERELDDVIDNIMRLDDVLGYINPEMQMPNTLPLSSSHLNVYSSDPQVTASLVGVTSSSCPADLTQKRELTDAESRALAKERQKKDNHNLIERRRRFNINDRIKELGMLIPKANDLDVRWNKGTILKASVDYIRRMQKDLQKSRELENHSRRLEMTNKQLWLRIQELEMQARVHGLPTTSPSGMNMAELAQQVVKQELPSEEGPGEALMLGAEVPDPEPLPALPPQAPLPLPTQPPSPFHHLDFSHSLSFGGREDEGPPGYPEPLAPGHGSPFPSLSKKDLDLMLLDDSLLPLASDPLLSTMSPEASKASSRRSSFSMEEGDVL
Description: Hela cells stably expressing 3×Flag-TFEB are treated with C1 (1 μM) for 12 h. Endogenous MTOR and YWHA are co-immunoprecipitated with Flag-TFEB. Western blots and levels of immunoprecipitated MTOR (FIG. 5A) and YWHA (FIG. 5B) normalized to their corresponding levels in whole cell lysates (WCL). Data are presented as the mean±SD from three independent experiments. *p<0.05 vs. the control. WB—western blot and IP—immunoprecipitation. Cells are lysed on ice in 1× Lysis Buffer (9803, Life Technologies) with complete protease inhibitor mixture (04693124001, Roche Applied Science). Animal tissues are homogenized in nine volumes of ice-cold PBS supplemented with protease inhibitors. Cytosolic and nuclear fractions are isolated using protocols similar to those described previously. Anti-Flag or TFEB antibody is added to the whole cell lysates and Dynabeads® Protein G (10003D, Life Technologies) is used for immunoprecipitation. Proteins are separated by 10-15% SDS-PAGE, transferred, and blotted with the antibodies described. The blots are then incubated with secondary antibodies or the Clean-Blot IP Detection Reagent (21230, Thermo Scientific) at room temperature for 1 h. The protein signals are detected by ECL kit (32106, Pierce) and quantified using ImageJ software. Hela cells stably expressing 3×Flag-TFEB are treated with C1 (1 μM) for 12 h. […]

SMILES | levels of Pro-CTSD and mature CTSD (M-CTSD) (N2a cells; 0-1 μM, dose-dependent manner) | levels of the lysosomal marker LAMP1 (N2a cells; 0-1 μM, dose-dependent manner) | LAMP1, pro-CTSD and CTSD levels in control (non-target siRNA) cells (N2a cells; 1 μM) | MTOR and YWHA coimmunoprecipitated with Flag-TFEB compared with control [1] | levels of endogenous MTOR and YWHA [1]
O=C(/C=C/c1ccccc1I)/C=C/c1ccccc1I [E4] | increases | significantly increases | significantly increases |  | 
COc1ccccc1/C=C/C(=O)/C=C/c1ccccc1OC [C1, 1,5-bis(2-methoxyphenyl)penta-1,4-dien-3-one] |  |  |  | decreased | does not affect

From patent US9540299B2, “MTOR-independent activator of TFEB for autophagy enhancement and uses thereof” (Hong Kong Baptist University, priority 2015, dated 2017)
